Laboratory results as given in patent US20250327794A1, “FLUOROMETRIC METHODS FOR DETECTION OF ALLERGIC SENSITIVITY TO ENVIRONMENTAL, FOODSTUFF, AND MEDICAMENT STIMULANTS” (CELL SCIENCE SYSTEMS CORPORATION, priority 2022, published 2025).

Key:
granulocytes = assay: Citrullinated histone H3 flow cytometry blood test (extracellular trap formation); type: cell-based, human
Text: Detection of extracellular traps formation was incorporated to improve flow cytometry analysis of granulocyte subpopulations. […] This example describes detection of granulocyte activation following exposure of human blood to exogenous stimulant, using dihydrorhodamine 123, propidium iodide, and citrullinated histone H3 staining.
Peripheral blood samples were collected, diluted, maintained, treated, lysed, and fixed as previously described. Samples were blocked as previously described and incubated with staining buffer containing a 1:400 dilution of Cit-H3 antibody (Cayman Chemical, Michigan, USA) for 30 min at RT. Following two wash steps, the samples were incubated with APC-conjugated secondary (1:200) (Columbia Biosciences, Maryland, USA) for 30 min and subsequent washing steps were performed to remove unbound antibodies. Cells were washed twice and resuspended in PBS prior to analysis using a BD Accuri C6 Flow Cytometer (BD Biosciences). Statistical analysis was performed using the FlowJo v10 (FlowJo). NETs were defined by the in-tandem use of the classis extracellular DNA/viability marker PI(+) and the extracellular trap marker Cit-H3(+). NET formation was quantified as a fold-change relative to the mean of the negative control samples.

eosinophils = assay: Eosinophil activation: RH 123 signal in CD193(+)/CD16(-) gated cells; type: cell-based, human
Text: Activation of eosinophils from human blood samples following exposure to exogenous stimulants was investigated using flow cytometry analysis of RH 123 fluorescence, as well as cell surface markers CD16 and CD193, and side scattering profiles. CD193 (CCR3; Chemokine C—C motif receptor 3) is a surface marker expressed in eosinophils and basophils. FIGS. 23A-23C show density plots of CD193 fluorescence signal on channel 3 (FL3-A) for DHR 123 only (FIG. 23A), DHR 123+PMA stimulant (FIG. 23B), and DHR 123+DM stimulant (FIG. 23C) following exposure to stimulant for 1.5 hours. FIGS. 23D-23F show corresponding gated RH 123 results (MFI=32944, MFI=70320, and MFI=28522, respectively). FIGS. 24A-24C show density plots of CD193 fluorescent signals at channel 3 (FL3-A) for DHR 123 only (FIG. 24A), DHR 123+DM stimulant (FIG. 24B), and DHR 123+RWP stimulant (FIG. 24C) following exposure to stimulant for 2.5 hours. FIGS. 24D-24F show corresponding gated RH 123 results (FIG. 24D, DHR 123 only: MFI=10156; FIG. 24E, DHR 123+DM stimulant: MFI=19911, and […], DHR 123+RWP stimulant: MFI=17210).
Eosinophil population was selected using CD193(+) and CD16(−) expression profiles (shown in FIGS. 23A-23C and […] as encircled). Eosinophil population was reduced in PMA stimulant, DM stimulant and RWP stimulant exposed groups. In addition, DHR 123 signals in gated eosinophils was higher than DHR 123 only control group after 2.5-hour incubation. Thus, it was concluded that eosinophils are activated by dust mite and ragweed pollen stimulants according to this method.

`CCCCCCCCCCCCCC(=O)O[C@@H]1[C@@H](C)[C@@]2(O)[C@@H](C=C(CO)C[C@]3(O)C(=O)C(C)=C[C@@H]23)[C@@H]2C(C)(C)[C@]12OC(C)=O` [PMA, Phorbol-12-Myristate-13-Acetate] was tested, and the “RH 123 (FL1-A) and PI (FL3-A) fluorescence signal compared with cell-only group” value (granulocytes) was “higher”, the “percentage cells positive for citrullinated histone H3 signals” value (granulocytes; after gating on FL3-A and FL4-A) was “high” and the “PI staining signal (channel 3, FL3-A)” value (granulocytes; repeat, 8 μL stimulant/100 μL blood) was “stronger signals”. The “CD193 signal over incubation time” value (eosinophils; 1-3 hr incubation, DHR 123 and PMA) was “decreased”, the “gated RH 123 signal MFI, CD193 gated” value (eosinophils; 1.5 hours exposure, DHR 123 only control MFI=32944) was 70320 and the “eosinophil population (in words)” value (eosinophils; CD193(+) and CD16(−) population in stimulant exposed groups) was “reduced”.
